Laboratory results as given in patent US4822799A, “Pyrazolopyridine analogs of mevalonolactone and derivatives thereof useful for inhibiting cholesterol biosynthesis in mammals” (Sandoz Pharm. Corp., priority 1988, dated 1989).

How the values were obtained:
[1] = system: 3β-hydroxysterol synthesis; experiment: Test B. In Vivo Cholesterol Biosynthesis Inhibition Test; details: Rattus norvegicus, po, rats, orally administered, 0.1-200 mg/kg. body weight, read-out: ED50 (50% inhibition of 3β-hydroxysterol synthesis)
Description: Test B. In Vivo Cholesterol Biosynthesis Inhibition Test:
In this test the rats are orally administered the test substance (compound of Formula I) at a dose of 0.1-200 mg/kg. body weight. The obtained ED50 is the dose of the test substance observed or calculated to produce a 50% inhibition of 3β-hydroxysterol synthesis.

[2] = molecular target: T1, 3-hydroxy-3-methylglutaryl coenzyme A (HMG-CoA) reductase (Rattus norvegicus, UniProt P51639); experiment: Test A. In Vitro Microsomal Assay of HMG-CoA Reductase Inhibition; assay type: biochemical; details: test substance 0.001-2,000 μmolar, read-out: IC50 (50% inhibition of HMG-CoA reductase activity)
T1 construct: from tissue; host or cells: liver microsomes of Sprague-Dawley rats (tissue and species from own knowledge of the cited documents)
T1 sequence (P51639 1-887): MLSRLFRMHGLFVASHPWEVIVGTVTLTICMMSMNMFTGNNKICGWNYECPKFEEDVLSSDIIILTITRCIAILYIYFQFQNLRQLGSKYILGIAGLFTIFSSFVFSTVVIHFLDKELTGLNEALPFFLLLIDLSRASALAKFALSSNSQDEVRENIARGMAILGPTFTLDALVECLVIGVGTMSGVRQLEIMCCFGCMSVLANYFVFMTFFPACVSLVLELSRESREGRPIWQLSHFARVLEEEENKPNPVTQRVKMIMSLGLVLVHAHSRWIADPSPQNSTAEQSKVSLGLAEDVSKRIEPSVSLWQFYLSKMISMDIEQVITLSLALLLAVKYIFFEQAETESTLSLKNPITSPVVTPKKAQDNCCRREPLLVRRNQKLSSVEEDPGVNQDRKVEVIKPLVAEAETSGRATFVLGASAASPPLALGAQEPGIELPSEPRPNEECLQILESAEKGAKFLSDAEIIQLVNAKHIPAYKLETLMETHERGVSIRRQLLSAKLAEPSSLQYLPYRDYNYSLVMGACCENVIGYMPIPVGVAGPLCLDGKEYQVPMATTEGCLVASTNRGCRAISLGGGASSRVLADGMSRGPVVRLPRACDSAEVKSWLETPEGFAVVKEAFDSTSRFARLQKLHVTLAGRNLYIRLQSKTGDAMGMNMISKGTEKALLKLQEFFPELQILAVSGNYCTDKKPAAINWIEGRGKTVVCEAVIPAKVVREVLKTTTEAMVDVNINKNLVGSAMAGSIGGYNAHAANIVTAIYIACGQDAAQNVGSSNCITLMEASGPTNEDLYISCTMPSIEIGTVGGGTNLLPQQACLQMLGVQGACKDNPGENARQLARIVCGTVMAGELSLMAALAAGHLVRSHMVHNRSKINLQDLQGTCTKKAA
Description: Test A. In Vitro Microsomal Assay of HMG-CoA Reductase Inhibition:
This test is carried out precisely as described in column 53 of U.S. Pat. No. 4,613,610 and on page 30 of World (PCT) Published patent application No. 84/02131, both of which are hereby incorporated by reference as if set forth herein in their entirety. The concentration of the test substance (compound of Formula I) in the assay system is 0.001-2,000 μmolar. The obtained IC50 is the concentration of the test substance in the assay system observed or calculated to produce a 50% inhibition of HMG-CoA reductase activity.

IC50 [2]	SMILES	ED50 [1]
	CC[C@H](C)C(=O)O[C@H]1C[C@@H](C)C=C2C=C[C@H](C)[C@H](CC[C@@H]3C[C@@H](O)CC(=O)O3)[C@H]21 [Mevinolin]	0.38 mg/kg
10 nM	Cc1nn(C)c2nc(C(C)C)c(/C=C/[C@@H](O)C[C@@H](O)CC(=O)O)c(-c3ccc(F)cc3)c12 [Example 2, Sodium (3R,5S)-(E)-3,5-dihydroxy-7-[1',3'-dimethyl-4'-(4"-fluorophenyl)-6'-(1"-methylethyl)-1H-pyrazolo[3,4-b]pyrid-5'-yl]hept-6-enoate]	
	CC[C@H](C)C(=O)O[C@H]1CCC=C2C=C[C@H](C)[C@H](CC[C@@H]3C[C@@H](O)CC(=O)O3)[C@H]21 [Compactin]	3.5 mg/kg
